From ChEMBL document CHEMBL1150752, “Inhibition of cow's milk xanthine oxidase by flavonoids” (J Nat Prod, 1988)

Columns and labels:
[1] = target: T1, Xanthine dehydrogenase/oxidase (Bos taurus, UniProt P80457); assay: Inhibition of cow milk xanthine oxidase
[2] = target: T1, Xanthine dehydrogenase/oxidase; assay: Inhibition of cow milk xanthine oxidase at 50 ug/mL; details: cattle

T1 sequence (P80457 whole entry): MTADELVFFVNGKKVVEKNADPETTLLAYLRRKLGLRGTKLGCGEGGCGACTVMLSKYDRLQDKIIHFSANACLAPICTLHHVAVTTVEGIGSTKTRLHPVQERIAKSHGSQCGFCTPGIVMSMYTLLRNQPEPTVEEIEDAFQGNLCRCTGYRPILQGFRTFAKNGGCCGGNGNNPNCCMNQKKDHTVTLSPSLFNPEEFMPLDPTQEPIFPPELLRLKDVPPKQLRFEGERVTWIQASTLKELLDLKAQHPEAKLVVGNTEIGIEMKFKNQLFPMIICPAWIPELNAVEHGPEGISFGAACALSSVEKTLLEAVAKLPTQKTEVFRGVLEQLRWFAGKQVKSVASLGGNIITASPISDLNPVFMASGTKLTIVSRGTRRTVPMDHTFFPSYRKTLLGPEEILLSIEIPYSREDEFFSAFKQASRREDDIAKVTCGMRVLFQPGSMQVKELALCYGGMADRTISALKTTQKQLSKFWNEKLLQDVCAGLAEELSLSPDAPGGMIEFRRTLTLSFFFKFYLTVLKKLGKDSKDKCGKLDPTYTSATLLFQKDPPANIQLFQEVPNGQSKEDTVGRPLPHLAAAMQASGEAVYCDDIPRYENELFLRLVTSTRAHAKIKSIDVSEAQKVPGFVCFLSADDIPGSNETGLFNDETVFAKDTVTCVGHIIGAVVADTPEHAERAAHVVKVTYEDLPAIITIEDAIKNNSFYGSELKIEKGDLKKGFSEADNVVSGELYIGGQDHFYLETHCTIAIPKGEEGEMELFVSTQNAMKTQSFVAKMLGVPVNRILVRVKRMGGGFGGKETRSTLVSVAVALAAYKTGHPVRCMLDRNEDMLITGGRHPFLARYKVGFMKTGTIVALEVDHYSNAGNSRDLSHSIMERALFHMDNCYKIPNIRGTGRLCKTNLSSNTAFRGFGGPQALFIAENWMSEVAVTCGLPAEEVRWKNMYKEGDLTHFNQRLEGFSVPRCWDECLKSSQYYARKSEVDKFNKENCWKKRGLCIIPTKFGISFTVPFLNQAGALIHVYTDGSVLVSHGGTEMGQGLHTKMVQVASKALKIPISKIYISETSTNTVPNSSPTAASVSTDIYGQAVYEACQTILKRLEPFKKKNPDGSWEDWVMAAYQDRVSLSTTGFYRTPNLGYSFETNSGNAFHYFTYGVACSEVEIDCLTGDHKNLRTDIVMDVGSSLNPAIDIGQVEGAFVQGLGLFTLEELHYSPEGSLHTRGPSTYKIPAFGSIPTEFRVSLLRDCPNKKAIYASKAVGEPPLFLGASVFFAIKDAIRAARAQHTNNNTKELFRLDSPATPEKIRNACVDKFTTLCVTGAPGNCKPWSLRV

In the case of COc1c(-c2ccc(O[C@@H]3O[C@H](CO)[C@@H](O)[C@H](O)[C@H]3O)c(O)c2)oc2cc(O)cc(O)c2c1=O, the IC50 [1] is reported as 35.6 µM and the inhibition at 50 µg/mL [2] is reported as 69.1%.

O=c1cc(-c2ccc(O)c(O)c2)oc2cc(O[C@@H]3O[C@H](CO)[C@@H](O)[C@H](O)[C@H]3O)cc(O)c12 (single isomer, unassigned) [GALUTEOLIN] was tested, and the IC50 [1] was 75.9 µM and the inhibition at 50 µg/mL [2] was 67.2%.

Work on COc1c(O)cc2oc(-c3ccc(O)cc3)c(OC)c(=O)c2c1O [3,6-DIMETHOXY KAEMPFEROL] yielded an IC50 [1] of 0.03 µM and an inhibition at 50 µg/mL [2] of 95%.

Compound COc1c(-c2ccc(O)c(O)c2)oc2cc(O)cc(O)c2c1=O [3-O-METHYLQUERCETIN] has an IC50 [1] of 31.6 µM and an inhibition at 50 µg/mL [2] of 98.5%.

Work on COc1ccc(-c2cc(=O)c3c(O)cc(O)cc3o2)cc1 [ACACETIN] yielded an IC50 [1] of 14.1 µM and an inhibition at 50 µg/mL [2] of 55.7%.

In the case of O=c1cc(-c2ccc(O)c(-c3c(O)cc(O)c4c(=O)cc(-c5ccc(O)cc5)oc34)c2)oc2cc(O)cc(O)c12 [AMENTOFLAVONE], the IC50 [1] is reported as 35.3 µM and the inhibition at 50 µg/mL [2] is reported as 100%.

O=c1cc(-c2ccccc2)oc2cc(O)c(O)c(O)c12 [BAICALEIN] was tested, and the IC50 [1] was 3.3 µM and the inhibition at 50 µg/mL [2] was 85.5%.

In the case of O=C1c2c(O)cc(O)cc2O[C@H](c2ccc(O)cc2)[C@H]1O [DIHYDROKAEMPFEROL], the IC50 [1] is reported as 93.8 µM and the inhibition at 50 µg/mL [2] is reported as 66.9%.

COc1ccc(-c2cc(=O)c3c(O)c([C@@H]4O[C@H](CO)[C@@H](O)[C@H](O)[C@H]4O)c(OC)cc3o2)cc1 [EMBIGENIN] gave an inhibition at 50 µg/mL [2] of 33.5%.

For COc1ccc(-c2cc(=O)c3c(O)c([C@H]4O[C@H](CO)[C@@H](O)[C@H](O)[C@H]4O[C@H]4O[C@H](C)[C@@H](O)[C@H](O)[C@@H]4O)c(OC)cc3o2)cc1 [EMBININ], the inhibition at 50 µg/mL [2] was 22.8%.

For O=C1C[C@@H](c2ccc(O)c(O)c2)Oc2cc(O)cc(O)c21 [ERIODICTYOL], the inhibition at 50 µg/mL [2] was 47.8%.

Work on COc1c(O)cc2oc(-c3ccc(O)c(O)c3)cc(=O)c2c1O [EUPAFOLIN] yielded an inhibition at 50 µg/mL [2] of 49%.

O=c1cc(-c2ccccc2)oc2ccccc12 [FLAVONE] showed an inhibition at 50 µg/mL [2] of 15.4%.

COc1ccc(-c2coc3cc(O)ccc3c2=O)cc1 [FORMONONETIN] was tested, and the inhibition at 50 µg/mL [2] was 17.6%.

Compound O=C1CC(c2ccc(O)c(O)c2)Oc2c1c(O)cc(O)c2[C@@H]1C(=O)c2c(O)cc(O)cc2O[C@H]1c1ccc(O)cc1 (some centres undefined) [FUKUGETIN] has an IC50 [1] of 22.3 µM and an inhibition at 50 µg/mL [2] of 97.2%.

In the case of O=C1c2ccc(O)cc2O[C@H](c2ccc(O)c(O)c2)[C@H]1O [FUSTIN], the inhibition at 50 µg/mL [2] is reported as 27.2%.

O=c1c(-c2ccc(O)cc2)coc2cc(O)cc(O)c12 [GENISTEIN] gave an inhibition at 50 µg/mL [2] of 0%.

O=c1c(-c2ccc(O)cc2)coc2cc(O[C@@H]3O[C@H](CO)[C@@H](O)[C@H](O)[C@H]3O)cc(O)c12 [GENISTIN] gave an inhibition at 50 µg/mL [2] of 0.8%.

Compound O=c1c(O[C@@H]2O[C@H](CO)[C@H](O)[C@H](O)[C@H]2O)c(-c2ccc(O)c(O)c2)oc2cc(O)cc(O)c12 [HYPEROSIDE] has an inhibition at 50 µg/mL [2] of 43%.

COc1cc(-c2coc3cc(O[C@@H]4O[C@H](CO)[C@@H](O)[C@H](O)[C@H]4O)c(OC)c(O)c3c2=O)cc(O)c1OC [IRIDIN] showed an inhibition at 50 µg/mL [2] of 0%.

COc1cc(-c2coc3cc(O)c(OC)c(O)c3c2=O)cc(O)c1OC [IRIGENIN] showed an inhibition at 50 µg/mL [2] of 0%.

COc1cc(-c2coc3cc4c(c(OC)c3c2=O)OCO4)cc(OC)c1OC [IRISFLORENTIN] showed an inhibition at 50 µg/mL [2] of 0%.

In the case of COc1c2c(cc3occ(-c4ccc(O)cc4)c(=O)c13)OCO2 [IRISOLONE], the inhibition at 50 µg/mL [2] is reported as 0%.

COc1ccc(-c2coc3cc(O)c(OC)c(O)c3c2=O)cc1O [IRISTECTORIGENIN A] showed an inhibition at 50 µg/mL [2] of 0%.

Work on O=c1cc(-c2ccc(O)c(O)c2)oc2cc(O)c([C@@H]3O[C@H](CO)[C@@H](O)[C@H](O)[C@H]3O)c(O)c12 [ISOORIENTIN] yielded an inhibition at 50 µg/mL [2] of 25.2%.

With COc1cc(-c2oc3cc(O)cc(O)c3c(=O)c2O)ccc1O [ISORHAMNETIN] the inhibition at 50 µg/mL [2] was 49%.

O=c1c(O[C@@H]2O[C@@H](CO)[C@H](O)[C@H]2O)c(-c2ccc(O)cc2)oc2cc(O)cc(O)c12 [JUGLANIN] showed an inhibition at 50 µg/mL [2] of 0%.

For COc1cc2oc(-c3ccc(O)cc3)c(O)c(=O)c2c(O)c1[C@@H]1O[C@H](CO)[C@@H](O)[C@H](O)[C@H]1O [KEYAKININ], the inhibition at 50 µg/mL [2] was 0%.

In the case of O=C1C[C@@H](c2ccc(O[C@@H]3O[C@H](CO)[C@@H](O)[C@H](O)[C@H]3O)cc2)Oc2cc(O)ccc21 [LIQUIRITIN], the inhibition at 50 µg/mL [2] is reported as 18%.

O=C1C[C@@H](c2ccc(O)cc2)Oc2cc(O)ccc21 [LIQUIRTIGENIN] was tested, and the inhibition at 50 µg/mL [2] was 100%.

C[C@@H]1O[C@@H](O[C@H]2[C@H](Oc3cc(O)c4c(=O)cc(-c5ccc(O)c(O)c5)oc4c3)O[C@H](CO)[C@@H](O)[C@@H]2O)[C@H](O)[C@H](O)[C@H]1O [LONICERIN] showed an inhibition at 50 µg/mL [2] of 20.1%.

Compound COc1cc(-c2oc3cc(O)cc(O)c3c(=O)c2O[C@@H]2O[C@H](CO[C@@H]3O[C@@H](C)[C@H](O)[C@@H](O)[C@H]3O)[C@@H](O)[C@H](O)[C@H]2O)ccc1O [NARCISSIN] has an inhibition at 50 µg/mL [2] of 22.2%.

Compound O=c1cc(-c2ccc(O)c(O)c2)oc2c([C@@H]3O[C@H](CO)[C@@H](O)[C@H](O)[C@H]3O)c(O)cc(O)c12 [ORIENTIN] has an inhibition at 50 µg/mL [2] of 15.3%.

Compound COc1ccc(-c2cc(=O)c3c(O)c(OC)c(O)cc3o2)cc1 [PECTOLINARIGENIN] has an inhibition at 50 µg/mL [2] of 32.1%.

COc1ccc(-c2cc(=O)c3c(O)c(OC)c(O[C@@H]4O[C@H](CO[C@@H]5O[C@@H](C)[C@H](O)[C@@H](O)[C@H]5O)[C@@H](O)[C@H](O)[C@H]4O)cc3o2)cc1 [PECTOLINARIN] was tested, and the inhibition at 50 µg/mL [2] was 11.5%.

Work on COc1cc(-c2oc3cc(O)cc(O)c3c(=O)c2OS(=O)(=O)O)ccc1O [PERSICARIN] yielded an IC50 [1] of 34.6 µM and an inhibition at 50 µg/mL [2] of 90.3%.

In the case of CC(C)=CCc1c(O[C@@H]2O[C@H](CO)[C@@H](O)[C@H](O)[C@H]2O)cc(O)c2c1O[C@H](c1ccc(O)cc1)[C@@H](O)C2=O [PHELLAMURIN], the inhibition at 50 µg/mL [2] is reported as 0%.

COc1ccc([C@@H]2CC(=O)c3c(O)cc(O[C@@H]4O[C@H](CO)[C@@H](O)[C@H](O)[C@H]4O[C@@H]4O[C@@H](C)[C@H](O)[C@@H](O)[C@H]4O)cc3O2)cc1 [PONCIRIN] was tested, and the inhibition at 50 µg/mL [2] was 0%.

O=C1C[C@@H](c2ccc(O)cc2)Oc2cc(O[C@@H]3O[C@H](CO)[C@@H](O)[C@H](O)[C@H]3O)cc(O)c21 [PRUNIN] gave an inhibition at 50 µg/mL [2] of 4.2%.

O=C(O)[C@H]1O[C@@H](Oc2c(-c3ccc(O)c(O)c3)oc3cc(O)cc(O)c3c2=O)[C@H](O)[C@@H](O)[C@@H]1O [QUERCETIN GLUCURONIDE] gave an inhibition at 50 µg/mL [2] of 36.5%.

Work on O=c1c(O)c(-c2ccc(O)c(O)c2)oc2cc(O[C@@H]3O[C@H](CO)[C@@H](O)[C@H](O)[C@H]3O)cc(O)c12 [QUERCIMERITRIN] yielded an inhibition at 50 µg/mL [2] of 0%.

Work on O=c1c(O[C@@H]2OC[C@@H](O)[C@H](O)[C@H]2O)c(-c2ccc(O)c(O)c2)oc2cc(O)cc(O)c12 [REYNOUTRIN] yielded an inhibition at 50 µg/mL [2] of 33.1%.

For C[C@@H]1O[C@@H](O[C@H]2[C@H](Oc3cc(O)c4c(=O)cc(-c5ccc(O)cc5)oc4c3)O[C@H](CO)[C@@H](O)[C@@H]2O)[C@H](O)[C@H](O)[C@H]1O [RHOIFOLIN], the inhibition at 50 µg/mL [2] was 12.9%.

In the case of O=c1c(O)c(-c2cc(O)c(O)c(O)c2)oc2cc(O)ccc12 [ROBINETIN], the inhibition at 50 µg/mL [2] is reported as 82.9%.

With COc1cc(O)c2c(c1)O[C@H](c1ccc(O)cc1)CC2=O [SAKURANETIN] the inhibition at 50 µg/mL [2] was 0%.

COc1ccc(-c2cc(=O)c3c(O)cc(O)c(-c4cc(-c5cc(=O)c6c(O)cc(OC)cc6o5)ccc4OC)c3o2)cc1 [SCIADOPITISIN] gave an inhibition at 50 µg/mL [2] of 0%.

In the case of O=c1cc(-c2ccc(O)cc2)oc2cc(O)c(O)c(O)c12 [SCUTELLAREIN], the IC50 [1] is reported as 12.6 µM and the inhibition at 50 µg/mL [2] is reported as 67.3%.

O=C(O)[C@H]1O[C@@H](Oc2cc3oc(-c4ccc(O)cc4)cc(=O)c3c(O)c2O)[C@H](O)[C@@H](O)[C@@H]1O [SCUTELLARIN] was tested, and the inhibition at 50 µg/mL [2] was 16.6%.

For O=c1c(-c2ccc(O[C@@H]3O[C@H](CO)[C@@H](O)[C@H](O)[C@H]3O)cc2)coc2cc(O)cc(O)c12 [SOPHORICOSIDE], the inhibition at 50 µg/mL [2] was 15.3%.

COc1cc2oc(-c3ccc(O)cc3)cc(=O)c2c(O)c1[C@@H]1O[C@H](CO)[C@@H](O)[C@H](O)[C@H]1O [SWERTISIN] showed an inhibition at 50 µg/mL [2] of 24.9%.

Work on COc1c(O[C@@H]2O[C@H](CO)[C@@H](O)[C@H](O)[C@H]2O)cc2occ(-c3ccc(O)cc3)c(=O)c2c1O [TECTORIDIN] yielded an inhibition at 50 µg/mL [2] of 0%.

COc1c(O)cc2occ(-c3ccc(O)cc3)c(=O)c2c1O [TECTORIGENIN] showed an inhibition at 50 µg/mL [2] of 0%.

COc1ccc(-c2cc(=O)c3c(O)cc(O[C@@H]4O[C@H](CO)[C@@H](O)[C@H](O)[C@H]4O)cc3o2)cc1 [TILIANINE] showed an inhibition at 50 µg/mL [2] of 0%.

With COc1c(-c2ccc(O)c(O)c2)oc2cc(O[C@@H]3O[C@H](CO)[C@@H](O)[C@H](O)[C@H]3O)cc(O)c2c1=O [TRANSILIN] the inhibition at 50 µg/mL [2] was 39.5%.

O=c1c(O[C@@H]2O[C@H](CO)[C@H](O)[C@H](O)[C@H]2O)c(-c2ccc(O)cc2)oc2cc(O)cc(O)c12 [TRIFOLIN] was tested, and the inhibition at 50 µg/mL [2] was 16.1%.

O=c1cc(-c2ccc(O)cc2)oc2c([C@@H]3O[C@H](CO)[C@@H](O)[C@H](O)[C@H]3O)c(O)cc(O)c12 [VITEXIN] gave an inhibition at 50 µg/mL [2] of 0%.

Compound COc1c(O)cc(O)c2c(=O)cc(-c3ccccc3)oc12 [WOGONIN] has an IC50 [1] of 176 µM and an inhibition at 50 µg/mL [2] of 50.2%.
